Assay results reported in doi:10.1101/2025.05.23.655736v2 (biorxiv, 2025).
*1 amine or outer side, *2 acyl side, *3 side chain or, on linkers, in order; H or OH if unused. Where a SMILES comes first, the peptide text is derived from it. [ ]: non-standard residue; d: D form. d(isoGln) = NC(=O)[C@@H](CCC(=O)[*:2])N[*:1]

Tests used:
[1] = molecular target: T1, PcsBCHAP (CHAP domain of PcsB) (Streptococcus pneumoniae, UniProt A0A0H2ZQ76); assay: SPR; format: binding
T1 sequence (A0A0H2ZQ76 274-392): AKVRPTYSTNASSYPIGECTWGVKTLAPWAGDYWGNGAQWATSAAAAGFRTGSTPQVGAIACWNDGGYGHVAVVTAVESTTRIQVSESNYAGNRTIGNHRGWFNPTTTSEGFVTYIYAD

[2] = molecular target: T1, PcsBCHAP (CHAP domain of PcsB); assay: biochemical; details: read-out: ka (1/Ms)
[3] = molecular target: T1, PcsBCHAP (CHAP domain of PcsB); assay: biochemical; details: read-out: kd (1/s)

Kd [1] [nM] | kon [2] [M⁻¹ s⁻¹] | koff [3] [s⁻¹] | SMILES
94.1 | 102000 | 0.00956 | NCCCC[C@H](NC(=O)CC[C@@H](N)C(=O)O)C(=O)O [iE-Lys]
– | 99600 | 0.00502 | C[C@H](N)C(=O)N[C@H](CCC(=O)N[C@@H](CCCCN)C(=O)N[C@H](C)C(=O)N[C@H](C)C(=O)O)C(N)=O [AiQKADAD] (H-A[d(isoGln)]K[dA][dA]-OH)
– | 98200 | 0.0117 | CC(=O)N[C@H]1C(O)O[C@H](CO)[C@@H](O)[C@@H]1O[C@H](C)C(=O)N[C@@H](C)C(=O)N[C@H](CCC(=O)N[C@@H](CCCCN)C(=O)O)C(N)=O (stereo partly shown) [M-TriLYS]
– | 33300 | 0.036 | C[C@H](N)C(=O)N[C@H](CCC(=O)N[C@@H](CCCCN)C(=O)N[C@H](C)C(=O)N[C@H](C)C(=O)O)C(=O)O [AEKADAD]
– | 158000 | 0.017 | N[C@H](CCC(=O)N[C@H](CCC[C@H](N)C(=O)O)C(=O)O)C(=O)O [iE-DAP]
– | 6280 | 0.00394 | CC(=O)N[C@H]1C(O)O[C@H](CO)[C@@H](O)[C@@H]1O[C@H](C)C(=O)N[C@@H](C)C(=O)N[C@H](CCC(=O)N[C@@H](CCC[C@@H](N)C(=O)O)C(=O)O)C(=O)O (stereo partly shown) [M-TriDAP]
